Reference: patent US20180318199A1, “Pharmaceutical Composition Having Anti-Aging Properties against High-Glucose” (TAIWAN LEADER BIOTECH CORP., priority 2017, published 2018)

Legend:
Type in all cases: cell-based, human
[1] = test system: SIRT-1, SIRT-3 and SIRT-6; test: RT-PCR/Q-PCR of SIRT genes in HNDFs; settings: 72 h
Text: As shown in the figures, to determine whether ANM regulates HNDF senescence through a SIRT-1-mediated pathway, expression levels of SIRT genes SIRT-1, SIRT-3 and SIRT-6 are is examined.
Total RNA is extracted and subjected to Q-PCR analysis to monitor SIRT-1, SIRT-3 and SIRT-6 expression. Relative mRNA levels are normalized by β-actin mRNA. Previous studies have shown that exposure of endothelial cells to HG rapidly decreases levels of expression of SIRT genes.
(§1) Total RNA is extracted from cultured HNDFs using Trizol Reagent (Thermo Fisher Scientific). Q-PCR analysis is performed using Applied Biosystems detection instruments and software. Forward and reverse primers (10 μM), and the working solution SYBR green, is used as a PCR master mix, under the following conditions: 96° C. for 3 minutes followed by 40 cycles at 96° C. for 1 minute, 50° C. for 30 seconds and 72° C. for 90 seconds. GAPDH is used as an internal standard to control for variability in amplification because of differences in starting mRNA concentrations. The copy number of each transcript is calculated as the relative copy number normalized by GAPDH copy number.

[2] = test system: HO-1 and NQO-1; test: Q-PCR of HO-1 and NQO-1 mRNA in HNDFs; settings: 12 h
Procedure: Therefore, it is hypothesized that ANM may upregulate anti-oxidant genes, which may suppress HG-induced ROS generation in HNDFs. In FIG. 5B and FIG. 5C, to quantify the mRNA expression levels of HO-1 and NQO-1, HNDFs are incubated with ANM (10 μM) or NAC (100 μM) in the presence or absence of HG (30 mM) for 12 h. Total RNA is extracted and subjected to Q-PCR analysis. Relative mRNA levels are normalized with β-actin mRNA. […] In contrast, as compared with the NG treatment group, […] expression levels of HO-1 and NQO-1 are observed in the HG treatment group.
As shown in the figures, to confirm a hypothesis that ANM protects HNDFs from HG-induced oxidative stress, an Nrf2 gene knockdown system using Nrf2 siRNA is developed. In FIG. 6A, HNDFs are transfected with specific siRNA against Nrf2 or control siRNA. After transfection for 24 h, cells are incubated with ANM (10 μM) in the presence of HG for 12 h. Total RNA is extracted and subjected to Q-PCR analysis to determine HO-1 and NQO-1 mRNA expression levels. […] From the data, it can be concluded that Nrf2 plays a vital role in HO-1 and NQO-1 induction even at the basal level.
as §1

[3] = test system: HUVECs; test: Intracellular ROS (DCFH-DA assay) in HUVECs; settings: ANM 10 μM + HG 30 mM, 48 h; HG alone 14.3-fold
Procedure: The intracellular ROS level is quantified by utilizing DCFH-DA assay. […] However, treatment of HUVECs with ANM resulted reduced ROS levels (6.1-fold), compared with HUVECs in HG that are not treated with ANM. In addition, in FIG. 9G, western blot analysis is performed to determine the protein expression levels of HO-1 and NQO-1.

[4] = test system: SIRT-1, SIRT-3, SIRT-6; test: Western blot of SIRT proteins and phos-SIRT-1 in HNDFs; settings: 72 h
Procedure: Total cell lysate is extracted and subjected to western blot analysis to monitor SIRT-1, SIRT-3, SIRT-6 protein levels.
The protein expression levels of SIRT-1, SIRT-6, p21^CIP1, SMP30, p53, FoxO and acetylation of p53 and FoxO1 are determined by western blot analysis.
To further understand the regulation of SIRT-1 by ANM, the effect of ANM on SIRT-1 activation and protein stability is examined under hyperglycemic conditions. In FIG. 7I, cells are incubated with JNK/SAPK or p38 MAPK inhibitors SP600125 (SP, 30 μM) and SB203580 (SB, 30 μM) in the presence of HG for 72 h. The protein expression levels of phos-SIRT-1 and SIRT-1 are determined by western blotting. Results are expressed as mean±S.E.M of three independent experiments. Statistical significance is set at ^ϕP<0.05 as compared to NG vs. HG and *P<0.05 as compared to HG vs. samples. Previous studies have shown that hyperphosphorylation of SIRT-1 at serine 47 (Ser47) is correlated with enhanced endothelial senescence. In addition, persistent activation of JNK1/2 by multiple factors including hyperglycemia induces extensive SIRT-1 proteasome degradation followed by phosphorylation at Ser47. […] Therefore, it is hypothesized that ANM-mediated suppression of JNK1/2 and p38 MAPK activation may have a functional role in the stability of SIRT-1 protein.
Cells are lysed by either RIPA lysis buffer or nuclear and cytoplasmic extraction reagents (Thermo Fisher Scientific). Protein concentrations are determined by Bio-Rad protein assay reagent (Bio-Rad Laboratories, Hercules, Calif.). Equal amounts of protein samples (60 μg) are separated by 7-12% SDS-PAGE and the separated proteins are transferred onto polyvinylidene […] (PVDC) membrane overnight. The transferred protein membranes are blocked with 5% non-fat dried milk for 30 min, followed by incubation with specific primary antibodies overnight, and either horseradish peroxidase-conjugated goat anti-rabbit or anti-mouse antibodies for 2 h. The blots are detected using VL Chemi-Smart 3000 (Viogene Biotek, Sunnyvale, Calif.) with the enhanced chemiluminescence (ECL) western blotting reagent (Millipore, Billerica, Mass.).

SMILES: C=C(CCC(C)C1CCC2C3=C(C(=O)C(O)C21C)C1(C)CCC(O)C(C)C1CC3)C(C)C(=O)O (stereo not shown) [ANM, antcin M]
- SIRT-1 and SIRT-6 mRNA, HG-induced depletion ([1]; ANM 10 μM + HG, Q-PCR): rescues
- SIRT-1, SIRT-3 and SIRT-6 levels (RT-PCR) ([1]; ANM 10 μM, no HG, vs control): significantly increased
- HO-1 and NQO-1 mRNA levels in HG treated groups ([2]; ANM 10 μM + HG 30 mM): further increased
- HO-1 and NQO-1 expression, siNrf2-transfected cells ([2]; ANM 10 μM + HG): decrease
- HO-1 and NQO-1 mRNA levels, control siRNA cells ([2]; ANM 10 μM + HG, scrambled siRNA): remarkable increase
- HO-1 and NQO-1 mRNA levels, compound alone ([2]; ANM 10 μM, no HG): significantly increases
- intracellular ROS levels in HUVECs [3]: 6.1 fold
- HG-induced reduction in SIRT-1, SIRT-3 and SIRT-6 proteins ([4]; ANM 10 μM + HG 30 mM): significantly prevented
- SIRT-1 and SIRT-6 expression, control siRNA cells ([4]; ANM 10 μM + HG): significantly increases
- HG-induced SIRT-1 phosphorylation at Ser47 ([4]; ANM or RES + HG): significantly attenuates
